This note sets out measurements from patent US20090311217A1, “3-SUBSTITUTED-1H-INDOLE COMPOUNDS, THEIR USE AS MTOR KINASE AND PI3 KINASE INHIBITORS, AND THEIR SYNTHESES” (priority 2008, published 2009).

The term IC50 denotes the point on the concentration scale where inhibition reaches its midpoint.

The structures appear in SMILES notation. Like-named read-outs stand apart in the source and are kept apart here. Some results are limits rather than exact numbers.

Holding throughout (type): biochemical
One assay concerns the target T1, human TOR (Homo sapiens, UniProt P42345).
T1 construct: FLAG
Briefly: mTOR enzyme assay (DELFIA, His6-S6K substrate). The settings on record: read-out: mTOR Kinase Avg. IC50.

For a further assay, the target named is PI3K-delta (Homo sapiens, UniProt O00329). Briefly: PI3K-delta fluorescence polarization assay. In general terms: Polarisation of emitted light reports the rotation of a fluorescent probe.
Another assay concerns the target PI3K-beta (Homo sapiens, UniProt P42338). Put plainly: PI3K-beta fluorescence polarization assay. The settings on record: read-out: PI3Kβ Avg. IC50. The protocol:
PI3K-Alpha, PI3K-Beta, PI3K-Gamma, and PI3K-delta Fluorescence Polarization Assay Protocols
PI3-Kinase reactions were performed in 5 mM HEPES, pH 7, 2.5 mM MgCl2, and 25 μM ATP, with diC8-PI(4,5)P2 (Echelon, Salt Lake City Utah) as substrate. Nunc 384-well black polypropylene fluorescent plates were used for PI3K assays. Reactions were quenched by the addition of EDTA to a final concentration of 10 mM. Final reaction volumes were 10 μl. For evaluation of PI3K inhibitors, 5 ng of enzyme (PI3K-alpha, beta, gamma, or delta) and 2.5 μM of substrate was used per […] reaction volume, and inhibitor concentrations ranged from 100 μM to 20 μM; the final level of DMSO in reactions never exceeded 2%. Reactions were allowed to proceed for one hour at 25° C. After 1 hour, GST-tagged GRP1 (general receptor for phosphoinositides) PH domain fusion protein was added to a final concentration of 100 nM, and BODIPY-TMRI(1,3,4,5)P4 (Echelon) was also added to a final concentration of 5 nM. Final sample volumes were 25 μl with a final DMSO concentration of 0.8%. Assay Plates were read on Perkin-Elmer Envision plate readers with appropriate filters for Tamra [BODIPY-TMRI(1,3,4,5)P4]. Data obtained were used to calculate enzymatic activity and enzyme inhibition by inhibitor compounds.

The target of the next assay is PI3K-alpha (Homo sapiens, UniProt P42336). Put plainly: PI3K-alpha fluorescence polarization assay.
The target in the next assay is PI3K-gamma (Homo sapiens, UniProt P48736). Put plainly: PI3K-gamma fluorescence polarization assay. The settings on record: PI3Kγ Avg. IC50. In outline:
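FP competition read-out: PIP3 produced displaces BODIPY-TMR-IP4 (5 nM) from GST-GRP1 PH domain (100 nM). Kinase step: 5 ng enzyme, 2.5 μM diC8-PIP2, 25 μM ATP, pH 7 HEPES/MgCl2, 1 h, 25° C; EDTA stop.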

Chain of PI3K-alpha (P42336 whole entry, species assumed): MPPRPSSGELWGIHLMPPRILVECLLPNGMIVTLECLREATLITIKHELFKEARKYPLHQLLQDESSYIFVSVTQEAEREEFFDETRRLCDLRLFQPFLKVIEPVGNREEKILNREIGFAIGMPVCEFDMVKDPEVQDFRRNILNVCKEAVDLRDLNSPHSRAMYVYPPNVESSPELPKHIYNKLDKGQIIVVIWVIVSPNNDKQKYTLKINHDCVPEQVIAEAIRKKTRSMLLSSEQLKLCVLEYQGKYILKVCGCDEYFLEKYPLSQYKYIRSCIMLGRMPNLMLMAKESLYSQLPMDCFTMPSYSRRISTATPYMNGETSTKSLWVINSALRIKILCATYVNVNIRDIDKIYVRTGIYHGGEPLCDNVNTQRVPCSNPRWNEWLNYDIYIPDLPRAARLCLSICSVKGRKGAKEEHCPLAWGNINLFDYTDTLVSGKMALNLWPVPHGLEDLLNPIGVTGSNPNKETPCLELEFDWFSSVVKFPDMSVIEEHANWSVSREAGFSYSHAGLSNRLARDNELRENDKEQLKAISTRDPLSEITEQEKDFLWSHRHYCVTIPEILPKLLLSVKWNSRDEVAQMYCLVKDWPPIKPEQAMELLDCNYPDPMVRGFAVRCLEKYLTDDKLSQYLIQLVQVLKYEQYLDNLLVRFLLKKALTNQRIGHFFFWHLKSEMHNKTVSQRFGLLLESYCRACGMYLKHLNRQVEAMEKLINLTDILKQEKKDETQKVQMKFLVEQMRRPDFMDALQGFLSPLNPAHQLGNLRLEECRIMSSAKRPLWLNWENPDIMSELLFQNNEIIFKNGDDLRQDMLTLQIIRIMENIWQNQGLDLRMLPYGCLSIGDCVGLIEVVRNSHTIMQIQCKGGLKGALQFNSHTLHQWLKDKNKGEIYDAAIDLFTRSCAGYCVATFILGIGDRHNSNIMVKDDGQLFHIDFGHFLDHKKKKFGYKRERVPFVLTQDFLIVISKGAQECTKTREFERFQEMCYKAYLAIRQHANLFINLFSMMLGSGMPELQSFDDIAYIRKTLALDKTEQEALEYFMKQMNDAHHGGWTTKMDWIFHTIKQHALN
Chain of PI3K-alpha (P27986 whole entry partner, species assumed): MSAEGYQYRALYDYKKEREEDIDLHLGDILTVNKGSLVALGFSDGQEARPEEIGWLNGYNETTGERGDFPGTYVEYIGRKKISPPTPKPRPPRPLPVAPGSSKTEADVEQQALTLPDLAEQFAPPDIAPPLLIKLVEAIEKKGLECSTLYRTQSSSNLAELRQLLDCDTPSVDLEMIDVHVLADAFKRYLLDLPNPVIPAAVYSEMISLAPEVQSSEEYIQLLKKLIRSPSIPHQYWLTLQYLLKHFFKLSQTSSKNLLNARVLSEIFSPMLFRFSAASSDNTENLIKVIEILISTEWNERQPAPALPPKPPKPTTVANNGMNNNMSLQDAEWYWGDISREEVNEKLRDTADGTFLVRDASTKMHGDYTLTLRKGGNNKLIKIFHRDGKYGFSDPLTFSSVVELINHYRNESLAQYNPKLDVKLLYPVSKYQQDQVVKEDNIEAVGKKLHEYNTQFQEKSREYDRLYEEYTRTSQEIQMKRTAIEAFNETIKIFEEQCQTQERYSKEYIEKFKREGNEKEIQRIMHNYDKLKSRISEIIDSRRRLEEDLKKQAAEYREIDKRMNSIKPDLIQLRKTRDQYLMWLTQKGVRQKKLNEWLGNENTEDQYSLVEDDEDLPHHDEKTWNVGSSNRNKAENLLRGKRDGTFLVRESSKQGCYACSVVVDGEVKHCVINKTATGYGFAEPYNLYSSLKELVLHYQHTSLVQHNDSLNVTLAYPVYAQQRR
Chain of PI3K-delta (O00329 whole entry, species assumed): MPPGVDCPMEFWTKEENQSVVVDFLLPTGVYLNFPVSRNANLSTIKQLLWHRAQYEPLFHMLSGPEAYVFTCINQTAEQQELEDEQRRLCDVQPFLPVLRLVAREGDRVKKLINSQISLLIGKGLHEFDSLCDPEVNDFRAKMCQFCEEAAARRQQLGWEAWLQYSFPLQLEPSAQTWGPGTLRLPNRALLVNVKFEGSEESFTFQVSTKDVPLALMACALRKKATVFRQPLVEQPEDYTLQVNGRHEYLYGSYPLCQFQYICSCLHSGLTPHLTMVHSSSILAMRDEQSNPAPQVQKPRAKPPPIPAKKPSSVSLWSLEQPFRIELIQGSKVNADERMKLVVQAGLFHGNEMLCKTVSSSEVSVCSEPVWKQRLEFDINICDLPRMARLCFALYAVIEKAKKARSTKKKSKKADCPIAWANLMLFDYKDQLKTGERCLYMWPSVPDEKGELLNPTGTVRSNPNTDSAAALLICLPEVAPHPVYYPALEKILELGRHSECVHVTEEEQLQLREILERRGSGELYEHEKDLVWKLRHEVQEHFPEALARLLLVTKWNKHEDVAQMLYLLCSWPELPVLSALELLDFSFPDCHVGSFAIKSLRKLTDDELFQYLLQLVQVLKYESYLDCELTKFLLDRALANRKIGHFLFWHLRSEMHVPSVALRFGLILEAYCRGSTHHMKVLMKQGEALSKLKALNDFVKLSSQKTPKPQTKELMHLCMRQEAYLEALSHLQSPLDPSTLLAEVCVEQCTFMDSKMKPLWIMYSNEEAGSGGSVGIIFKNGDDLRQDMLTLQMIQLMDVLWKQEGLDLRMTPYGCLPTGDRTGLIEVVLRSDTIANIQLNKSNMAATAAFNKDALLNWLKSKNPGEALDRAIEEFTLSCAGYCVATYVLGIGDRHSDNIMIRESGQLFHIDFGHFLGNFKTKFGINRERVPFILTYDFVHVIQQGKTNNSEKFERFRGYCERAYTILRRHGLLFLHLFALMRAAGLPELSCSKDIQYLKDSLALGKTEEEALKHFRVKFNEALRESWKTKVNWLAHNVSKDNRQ
Chain of PI3K-delta (P27986 whole entry partner, species assumed): as the sequence (P27986 whole entry partner, species assumed) above
Chain of PI3K-gamma (P48736 whole entry, species assumed, the tested form may be a part): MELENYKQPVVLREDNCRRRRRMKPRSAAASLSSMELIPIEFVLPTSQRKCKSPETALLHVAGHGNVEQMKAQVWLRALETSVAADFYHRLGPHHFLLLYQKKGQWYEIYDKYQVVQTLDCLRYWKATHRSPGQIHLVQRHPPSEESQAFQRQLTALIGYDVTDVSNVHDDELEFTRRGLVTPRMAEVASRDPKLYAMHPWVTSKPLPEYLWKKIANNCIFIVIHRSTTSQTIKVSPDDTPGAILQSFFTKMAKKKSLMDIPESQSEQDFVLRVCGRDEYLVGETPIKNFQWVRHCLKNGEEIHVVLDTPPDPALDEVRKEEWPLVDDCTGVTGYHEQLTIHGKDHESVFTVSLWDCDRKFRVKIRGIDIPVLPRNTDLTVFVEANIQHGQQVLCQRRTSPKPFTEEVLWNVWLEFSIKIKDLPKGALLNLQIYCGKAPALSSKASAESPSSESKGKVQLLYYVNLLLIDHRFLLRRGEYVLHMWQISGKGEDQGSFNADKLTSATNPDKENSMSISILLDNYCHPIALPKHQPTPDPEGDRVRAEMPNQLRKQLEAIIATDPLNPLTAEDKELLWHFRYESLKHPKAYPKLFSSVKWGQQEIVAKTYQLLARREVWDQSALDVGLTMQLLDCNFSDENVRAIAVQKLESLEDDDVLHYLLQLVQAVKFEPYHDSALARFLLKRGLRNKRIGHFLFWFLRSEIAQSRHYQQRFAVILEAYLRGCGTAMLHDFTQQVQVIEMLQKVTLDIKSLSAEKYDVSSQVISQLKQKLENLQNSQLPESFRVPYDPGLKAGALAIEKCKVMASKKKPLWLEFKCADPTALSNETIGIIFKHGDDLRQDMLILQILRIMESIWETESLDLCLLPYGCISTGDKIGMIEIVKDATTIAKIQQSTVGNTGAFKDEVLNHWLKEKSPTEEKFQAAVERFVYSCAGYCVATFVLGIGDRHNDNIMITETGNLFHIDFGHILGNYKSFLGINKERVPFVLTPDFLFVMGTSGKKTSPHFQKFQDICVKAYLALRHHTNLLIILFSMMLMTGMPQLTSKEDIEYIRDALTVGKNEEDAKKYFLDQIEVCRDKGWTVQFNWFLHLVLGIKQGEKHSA
Chain of PI3K-beta (P42338 whole entry, species assumed): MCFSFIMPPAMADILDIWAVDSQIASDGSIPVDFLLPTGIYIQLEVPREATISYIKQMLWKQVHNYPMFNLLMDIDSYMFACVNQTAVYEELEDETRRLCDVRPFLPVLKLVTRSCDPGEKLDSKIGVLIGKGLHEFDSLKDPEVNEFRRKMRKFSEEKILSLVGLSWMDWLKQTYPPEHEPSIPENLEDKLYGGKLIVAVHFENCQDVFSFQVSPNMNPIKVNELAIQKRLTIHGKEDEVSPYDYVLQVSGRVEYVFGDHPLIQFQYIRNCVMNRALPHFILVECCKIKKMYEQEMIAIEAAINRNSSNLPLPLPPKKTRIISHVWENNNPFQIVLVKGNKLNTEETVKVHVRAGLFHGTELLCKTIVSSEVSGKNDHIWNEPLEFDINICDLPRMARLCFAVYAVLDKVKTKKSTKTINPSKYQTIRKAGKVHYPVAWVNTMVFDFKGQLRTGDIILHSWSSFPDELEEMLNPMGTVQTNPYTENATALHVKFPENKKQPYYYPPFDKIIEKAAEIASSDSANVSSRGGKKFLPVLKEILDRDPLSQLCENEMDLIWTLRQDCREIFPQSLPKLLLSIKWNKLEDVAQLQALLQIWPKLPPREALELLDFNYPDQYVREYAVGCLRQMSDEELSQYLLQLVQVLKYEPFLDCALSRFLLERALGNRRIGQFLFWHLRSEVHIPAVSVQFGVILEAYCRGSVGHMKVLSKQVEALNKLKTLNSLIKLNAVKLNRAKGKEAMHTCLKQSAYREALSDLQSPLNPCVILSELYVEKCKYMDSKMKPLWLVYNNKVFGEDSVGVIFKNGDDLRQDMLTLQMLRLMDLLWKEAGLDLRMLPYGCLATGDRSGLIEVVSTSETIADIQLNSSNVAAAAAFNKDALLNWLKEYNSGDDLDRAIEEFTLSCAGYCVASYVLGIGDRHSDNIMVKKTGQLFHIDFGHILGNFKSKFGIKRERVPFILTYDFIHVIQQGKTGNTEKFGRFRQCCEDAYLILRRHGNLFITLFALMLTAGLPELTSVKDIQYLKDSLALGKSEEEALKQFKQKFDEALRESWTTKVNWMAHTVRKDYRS
Chain of PI3K-beta (P27986 whole entry partner, species assumed): as the sequence (P27986 whole entry partner, species assumed) above

In the case of `COc1ccc2c(c1)c(C=C1Oc3cc(O)cc(O)c3C1=O)c(C)n2CCCCN1CCN(CCN2CCOCC2)CC1` [Example 100, 4,6-dihydroxy-2-[(5-methoxy-2-methyl-1-{4-[4-(2-morpholin-4-ylethyl)piperazin-1-yl]butyl}-1H-indol-3-yl)methylene]-1-benzofuran-3(2H)-one], the IC50 at human TOR was determined as 55.5 nM; on PI3K-delta (read-out: PI3Kδ Avg. IC50), 3 nM; at PI3K-beta, 12.5 nM; at PI3K-alpha (read-out: PI3Kα Avg. IC50) it was 12 nM; on PI3K-gamma, 283 nM.
Taken in the same sequence, the figures for `COc1ccc2c(c1)c(/C=C1\Oc3cc(O)cc(O)c3C1=O)c(C(F)(F)F)n2CCN1CCN(C)CC1` [Example 336, (2Z)-4,6-Dihydroxy-2-({5-methoxy-1-[2-(4-methylpiperazin-1-yl)ethyl]-2-(trifluoromethyl)-1H-indol-3-yl}methylene)-1-benzofuran-3(2H)-one] were less than 22 nM, 1 nM, 4.1 nM, 4 nM and 61.7 nM.
`COc1ccc2c(c1)c(/C=C1\Oc3cc(O)cc(O)c3C1=O)c(C)n2CCCN(C)C` [Example 305, (2Z)-2-({1-[3-(Dimethylamino)propyl]-5-methoxy-2-methyl-1H-indol-3-yl}methylene)-4,6-dihydroxy-1-benzofuran-3(2H)-one]: the IC50 was determined as 205 nM at human TOR; 5 nM on PI3K-delta; 28.5 nM at PI3K-beta; 5 nM at PI3K-alpha (PI3Kα Avg. IC50); 228 nM against PI3K-gamma.
Take `COc1ccc2c(c1)c(/C=C1\Oc3cc(O)ccc3C1=O)c(C)n2CCCN1CCCCCC1` [Example 358, (2Z)-2-{[1-(3-Azepan-1-ylpropyl)-5-methoxy-2-methyl-1H-indol-3-yl]methylene}-6-hydroxy-1-benzofuran-3(2H)-one]: the IC50 at human TOR is greater than 800 nM; at PI3K-delta (read-out: PI3Kδ Avg. IC50), less than 1 nM; on PI3K-beta, 95.5 nM; at PI3K-alpha (read-out: PI3Kα Avg. IC50), 7.5 nM; against PI3K-gamma, 239 nM.
Taken in the same sequence, the figures for `COc1ccc2c(c1)c(/C=C1\Oc3cc(O)cc(O)c3C1=O)c(C1CC1)n2CCn1ccnc1` [Example 334, (2Z)-2-({2-Cyclopropyl-1-[2-(1H-imidazol-1-yl)ethyl]-5-methoxy-1H-indol-3-yl}methylene)-4,6-dihydroxy-1-benzofuran-3(2H)-one] were less than 17 nM, 1.5 nM, 1.2 nM, 1.3 nM and 2.2 nM.
Taken in the same sequence, the figures for `COc1ccc2c(c1)c(C=C1Oc3cc(O)cc(O)c3C1=O)cn2CCN1CCN(CCO)CC1` [Example 111, 4,6-dihydroxy-2-[(1-{2-[4-(2-hydroxyethyl)piperazin-1-yl]ethyl}-5-methoxy-1H-indol-3-yl)methylene]-1-benzofuran-3(2H)-one] were 215 nM, 21.5 nM, 169 nM, 36.3 nM and 976 nM.
With `Cc1[nH]c2ccc(Br)cc2c1/C=C1\Oc2cc(O)cc(O)c2C1=O` [Example 61, (2Z)-2-[(5-bromo-2-methyl-1H-indol-3-yl)methylene]-4,6-dihydroxy-1-benzofuran-3(2H)-one], the IC50 at human TOR turned out to be 190 nM; at PI3K-delta (read-out: PI3Kδ Avg. IC50) it was 374 nM; on PI3K-beta, 567 nM; on PI3K-alpha (PI3Kα Avg. IC50), 179 nM; against PI3K-gamma it was 2220 nM.
As to `COc1ccc2[nH]c(-c3ccccc3)c(/C=C3\Oc4cc(O)ccc4C3=O)c2c1` [Example 310, (2Z)-6-Hydroxy-2-[(5-methoxy-2-phenyl-1H-indol-3-yl)methylene]-1-benzofuran-3(2H)-one], the IC50 was 92 nM at human TOR; 0.9 nM at PI3K-delta (read-out: PI3Kδ Avg. IC50); 11.5 nM at PI3K-beta; less than 2.1 nM at PI3K-alpha (read-out: PI3Kα Avg. IC50); 13.5 nM on PI3K-gamma.
The corresponding values for `COc1ccc2c(c1)c(C=C1Oc3cc(O)cc(O)c3C1=O)c(C)n2CCN(C)C` [Example 110, 2-({1-[2-(dimethylamino)ethyl]-5-methoxy-2-methyl-1H-indol-3-yl}methylene)-4,6-dihydroxy-1-benzofuran-3(2H)-one] are 17.5 nM, 6.5 nM, 32 nM, 9.3 nM and 283 nM.
`COc1ccc2c(c1)c(/C=C1\Oc3cc(O)cc(O)c3C1=O)c(C(F)(F)F)n2CCn1cccn1` [Example 337, (2Z)-4,6-Dihydroxy-2-({5-methoxy-1-[2-(1H-pyrazol-1-yl)ethyl]-2-(trifluoromethyl)-1H-indol-3-yl}methylene)-1-benzofuran-3(2H)-one]: the IC50 on human TOR worked out at 20.5 nM; on PI3K-delta (read-out: PI3Kδ Avg. IC50), 9.7 nM; on PI3K-beta, 75.3 nM; on PI3K-alpha (read-out: PI3Kα Avg. IC50), 13 nM; against PI3K-gamma, 7 nM.
Taken in the same sequence, the figures for `COc1ccc2[nH]c(CN3CCN(C)CC3)c(/C=C3\Oc4cc(O)cc(O)c4C3=O)c2c1` [Example 346, (2Z)-4,6-Dihydroxy-2-({5-methoxy-2-[(4-methylpiperazin-1-yl)methyl]-1H-indol-3-yl}methylene)-1-benzofuran-3(2H)-one] were 77 nM, 3 nM, 7.7 nM, 6.1 nM and 55 nM.
Taken in the same sequence, the figures for `Cc1c(C=C2Oc3cc(O)cc(O)c3C2=O)c2ccccc2n1CCCCCl` [Example 94, 2-{[1-(4-chlorobutyl)-2-methyl-1H-indol-3-yl]methylene}-4,6-dihydroxy-1-benzofuran-3(2H)-one] were greater than 5000 nM, 1020 nM, 671 nM, 2240 nM and 5860 nM.
Regarding `COc1ccc2c(c1)c(C=C1Oc3cc(O)cc(O)c3C1=O)c(C)n2CCCN1CCN(C)CC1` [Example 95, 4,6-dihydroxy-2-({5-methoxy-2-methyl-1-[3-(4-methylpiperazin-1-yl)propyl]-1H-indol-3-yl}methylene)-1-benzofuran-3(2H)-one], the half-maximal inhibitory concentration (IC50) is 153 nM at human TOR; 2 nM at PI3K-delta (read-out: PI3Kδ Avg. IC50); 27 nM at PI3K-beta; 14.7 nM against PI3K-alpha (PI3Kα Avg. IC50); 402 nM on PI3K-gamma.
On to `COc1ccc2c(c1)c(/C=C1\Oc3cc(O)ccc3C1=O)c(C)n2CCCN1CCCCC1` [Example 357, (2Z)-6-Hydroxy-2-{[5-methoxy-2-methyl-1-(3-piperidin-1-ylpropyl)-1H-indol-3-yl]methylene}-1-benzofuran-3(2H)-one], for which the IC50 is greater than 800 nM on human TOR; less than 1 nM on PI3K-delta (read-out: PI3Kδ Avg. IC50); 98.5 nM at PI3K-beta; 11 nM on PI3K-alpha (read-out: PI3Kα Avg. IC50); 322 nM at PI3K-gamma.
The corresponding values for `COc1ccc2c(c1)c(C=C1Oc3cc(O)cc(O)c3C1=O)cn2CCCCN(C)C` [Example 116, 2-({1-[4-(dimethylamino)butyl]-5-methoxy-1H-indol-3-yl}methylene)-4,6-dihydroxy-1-benzofuran-3(2H)-one] are 1420 nM, 5 nM, 119 nM, 37 nM and 1340 nM.
Taken in the same sequence, the figures for `COc1ccc2c(c1)c(/C=C1\Oc3cc(O)cc(O)c3C1=O)cn2CCCN(C)C` [Example 323, (2Z)-2-({1-[3-(Dimethylamino)propyl]-5-methoxy-1H-indol-3-yl}methylene)-4,6-dihydroxy-1-benzofuran-3(2H)-one] were 930 nM, 4 nM, 120 nM, 20.5 nM and 605 nM.
Take `COc1ccc2c(c1)c(C=C1Oc3cc(O)cc(O)c3C1=O)c(C)n2CCN1CCOCC1` [Example 107, 4,6-dihydroxy-2-{[5-methoxy-2-methyl-1-(2-morpholin-4-ylethyl)-1H-indol-3-yl]methylene}-1-benzofuran-3(2H)-one]: the IC50 is less than 25 nM on human TOR; 5.8 nM at PI3K-delta (read-out: PI3Kδ Avg. IC50); 112 nM at PI3K-beta; 11.3 nM on PI3K-alpha (PI3Kα Avg. IC50); 154 nM on PI3K-gamma.
Turning to `COc1ccc2c(c1)c(C=C1Oc3cc(O)cc(O)c3C1=O)c(C)n2CCCN1CCN(CCN2CCOCC2)CC1` [Example 105, 4,6-dihydroxy-2-[(5-methoxy-2-methyl-1-{3-[4-(2-morpholin-4-ylethyl)piperazin-1-yl]propyl}-1H-indol-3-yl)methylene]-1-benzofuran-3(2H)-one], the IC50 at human TOR was 140 nM; at PI3K-delta (read-out: PI3Kδ Avg. IC50) it was 2 nM; on PI3K-beta it was 50.5 nM; on PI3K-alpha (read-out: PI3Kα Avg. IC50), 9.6 nM; against PI3K-gamma, 724 nM.
